Measured values: paper PMC7933930, “Development of a small molecule that corrects misfolding and increases secretion of Z α1‐antitrypsin” (EMBO Molecular Medicine, 2021)

How the values were obtained:
Z α1‐antitrypsin = Z α1‐antitrypsin (Homo sapiens, UniProt P01009, E366K); assay: TR‐FRET immunoassay (2C1 antibody) of Z α1‐antitrypsin polymerisation, 37°C, 72 h; format: biochemical; parameters: purified from the plasma of Z α1‐antitrypsin homozygotes; from tissue; host or cells: human plasma of Z α1-antitrypsin homozygotes; conditions: 5 nM Z α1‐antitrypsin, 37°C, 72 h; read-out: pIC50, blocking polymerisation in the TR‐FRET immunoassay (converted)
Sequence of Z α1‐antitrypsin (P01009 25-418 E366K): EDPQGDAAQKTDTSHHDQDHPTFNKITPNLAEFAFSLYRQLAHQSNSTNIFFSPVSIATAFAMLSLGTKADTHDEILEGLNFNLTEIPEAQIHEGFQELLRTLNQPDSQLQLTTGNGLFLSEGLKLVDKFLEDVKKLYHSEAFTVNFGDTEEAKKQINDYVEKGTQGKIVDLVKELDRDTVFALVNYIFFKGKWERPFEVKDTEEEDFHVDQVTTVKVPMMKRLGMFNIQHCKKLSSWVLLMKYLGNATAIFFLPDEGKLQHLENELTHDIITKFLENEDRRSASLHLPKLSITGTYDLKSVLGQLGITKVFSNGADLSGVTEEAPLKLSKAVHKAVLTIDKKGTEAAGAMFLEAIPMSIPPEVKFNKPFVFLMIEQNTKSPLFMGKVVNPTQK
Excerpt: Z α1‐antitrypsin is a conformationally dynamic molecule (Lomas et al, 1992; Knaupp et al, 2010) that represents a non‐classical target for drug discovery. A cell‐free assay approach to hit finding was undertaken so as not to miss compounds that bind α1‐antitrypsin and block polymerisation but lack the molecular properties to cross cell membranes. This comprised the following: (i) an encoded library technology (ELT) screen (Goodnow et al, 2017) of a library with a nominal diversity of 2 × 10^12 unique components to identify binders to Z α1‐antitrypsin and (ii) a high‐throughput screen (HTS) of the GSK compound collection (~ 1.7 million compounds) for small molecules that could block polymerisation of Z α1‐antitrypsin. […] In the HTS assay, polymerisation of purified Z α1‐antitrypsin was induced by incubation at 37°C for 72 h in the presence of test compounds, with end‐point quantification of polymers performed using the polymer‐specific monoclonal antibody, 2C1 (Miranda et al, 2010) in a TR‐FRET‐based immunoassay. […]
An antibody‐based time‐resolved fluorescence resonance energy transfer (TR‐FRET) assay was developed to monitor the polymerisation of 5 nM Z α1‐antitrypsin following incubation with varying concentrations of compounds at 37°C for 72 h. This assay used the 2C1 monoclonal antibody (1.25 nM) that is specific to pathological polymers of α1‐antitrypsin (Miranda et al, 2010), a polyclonal antibody (1/320 dilution) that binds to all forms of α1‐antitrypsin (Abcam product 9373), an anti‐mouse IgG (1.5 nM) labelled with fluorescence donor Eu‐W1024 (Perkin Elmer product AD0076) and an anti‐rabbit IgG (14.3 nM labelled with acceptor [APC]). […] The TR‐FRET signal was read on an Envision plate reader (PerkinElmer), by excitation of Europium at 337 nm and detection of emission at 665 and 620 nm.

[1] = tested on: Z α1‐antitrypsin polymers; parameters: method as in Hidvegi et al, 2010; conditions: Z α1‐antitrypsin transgenic mice, 2 weeks of dosing; ref Hidvegi et al, 2010; cited from earlier work
[2] = target: bovine α‐chymotrypsin (bovine)

Sequence of wild‐type M α1‐antitrypsin, purified from plasma (P01009 25-418): as the sequence (P01009 25-418 E366K) above, with K342E counted along it

CCCC(NC(=O)c1ccc2cc[nH]c2c1)C(O)c1ccccc1 (stereo not drawn) [GSK425]
IC50 (Z α1‐antitrypsin): 316 nM

NC(=O)N1c2ccccc2C=Cc2ccccc21 [carbamazepine]
effect on liver polymer [1]: profound effects on liver polymer

wild‐type M α1‐antitrypsin, purified from plasma (from UniProt P01009 25-418) (natural protein)
protease inhibitory activity (stoichiometry of inhibition, residual chymotrypsin activity) after pre‐incubation with 50 µM GSK716 [2]: > 98%
